According to ChEMBL document CHEMBL1127324, “Solid-state and solution conformations of the potent HIV inhibitor, 4'-azidothymidine” (J Med Chem, 1994):

Test system: Human immunodeficiency virus
Assay: In vitro inhibitory activity against HIV was determined
Format: functional, organism-based
Details: Human immunodeficiency virus 1

IC50: 0.01 µM
SMILES: Cc1cn([C@H]2C[C@H](O)[C@](CO)(N=[N+]=[N-])O2)c(=O)[nH]c1=O
